Data: ChEMBL document CHEMBL4311985, “Novel virosecurinine bivalent mimetics as potent reversal agents against P-glycoprotein-mediated multidrug resistance” (Eur J Med Chem, 2019)
The source made the active and inactive calls. The rule behind the calls is not given here.

What was measured:
[1] = target: T1, ATP-dependent translocase ABCB1 (Homo sapiens, UniProt P08183); assay: Reversal of P-gp mediated multidrug resistance in human MCF7/ADM cells assessed as potentiation of doxorubicin-induced cell growth inhibition at 10 uM measured after 48 hrs by MTT assay; assay type: cell-based
[2] = target: T1, ATP-dependent translocase ABCB1; assay: Reversal of P-gp mediated multidrug resistance in human HepG2/Dox cells assessed as potentiation of doxorubicin-induced cell growth inhibition at 10 uM measured after 48 hrs by MTT assay (reference value: 24%); assay type: cell-based
[3] = Cytotoxicity against human MCF7/ADM cells assessed as reduction in cell viability at 10 uM measured after 48 hrs by MTT assay; assay type: cell-based
[4] = target: T1, ATP-dependent translocase ABCB1; assay: Reversal of P-gp mediated multidrug resistance in human HepG2/Dox cells assessed as potentiation of doxorubicin-induced cell growth inhibition at 10 uM measured after 48 hrs by MTT assay; assay type: cell-based
[5] = Cytotoxicity against human HepG2/DOX cells assessed as reduction in cell viability at 10 uM measured after 48 hrs by MTT assay; assay type: cell-based
[6] = Cytotoxicity against human AC16 cells assessed as cell survival at 50 uM measured after 72 hrs by MTT assay relative to control; assay type: cell-based; conditions: read-out: Activity
[7] = organism: Homo sapiens; assay: Effect on P-gp expression in human HepG2/Dox cells at 5 to 10 uM measured after 48 hrs by Western blot analysis; assay type: functional, cell-based
[8] = Toxicity in kidney of BALB/c nude mouse xenografted with human HepG2/Dox cells at 25 mg/kg, ip administered daily by hematoxylin and eosin staining based assay; assay type: organism-based; conditions: in vivo
[9] = target: T1, ATP-dependent translocase ABCB1; assay: Inhibition of P-gp mediated doxorubicin efflux in human MCF7/ADM cells at 5 to 10 uM preincubated for 4 hrs followed by co-incubation with doxorubicin for 2 hrs followed by doxorubicin wash-out and measured after 120 mins incubation with drug containing culture medium by fluorescence based analysis; assay type: cell-based
[10] = target: T1, ATP-dependent translocase ABCB1; assay: Reversal of P-gp mediated drug efflux in human HepG2/Dox cells assessed as increase in intracellular Rhodamine123 accumulation at 5 to 10 uM preincubated for 4 hrs followed by Rh123 addition measured after 1 hr incubation by flow cytometry analysis; assay type: cell-based
[11] = Toxicity in spleen of BALB/c nude mouse xenografted with human HepG2/Dox cells assessed as inflammation at 25 mg/kg, iv cotreated with doxorubicin every 3rd day for 12 days by hematoxylin and eosin staining based assay; assay type: organism-based; conditions: in vivo, 288 h
[12] = Toxicity in spleen of BALB/c nude mouse xenografted with human HepG2/Dox cells assessed as blood extravasation at 25 mg/kg, iv cotreated with doxorubicin every 3rd day for 12 days by hematoxylin and eosin staining based assay; assay type: organism-based; conditions: in vivo, 288 h
[13] = Toxicity in BALB/c nude mouse xenografted with human HepG2/Dox cells assessed as effect on doxorubicin-induced body weight decline at 25 mg/kg, iv coadministered with doxorubicin every 3rd day for 12 days; assay type: organism-based; conditions: in vivo, 288 h
[14] = Toxicity in lung of BALB/c nude mouse xenografted with human HepG2/Dox cells at 25 mg/kg, iv cotreated with doxorubicin every 3rd day for 12 days by hematoxylin and eosin staining based assay; assay type: organism-based; conditions: in vivo, 288 h
[15] = target: T1, ATP-dependent translocase ABCB1; assay: Reversal of P-gp mediated multidrug resistance in human MCF7/ADM cells assessed as potentiation of doxorubicin-induced cell growth inhibition at 10 uM measured after 48 hrs by MTT assay (reference value: 5%); assay type: cell-based
[16] = Cardiotoxicity in BALB/c nude mouse xenografted with human HepG2/Dox cells assessed as effect on myocardial cells at 25 mg/kg, ip administered daily by hematoxylin and eosin staining based assay; assay type: toxicity, organism-based; conditions: in vivo
[17] = Cytotoxicity against human HepG2/DOX cells assessed as cell viability at 10 uM measured after 48 hrs by MTT assay relative to control; assay type: cell-based; conditions: read-out: Activity
[18] = test system: HepG2; assay: Cytotoxicity against human HepG2 cells assessed as cell viability at 5 to 50 uM measured after 48 hrs by MTT assay; assay type: cell-based; conditions: hepg2, 48 h
[19] = Cytotoxicity against human MCF7/ADM cells assessed as cell viability at 10 uM measured after 48 hrs by MTT assay relative to control; assay type: cell-based; conditions: read-out: Activity
[20] = target: T1, ATP-dependent translocase ABCB1; assay: Reversal of P-gp mediated multidrug resistance in human HepG2/DOX cells assessed as potentiation of doxorubicin-induced cytotoxicity at 5 to 10 uM by MTT assay; assay type: cell-based; conditions: TDE = time-dependent effect
[21] = test system: Homo sapiens; assay: In vivo reversal of P-gp mediated drug resistance in human HepG2/Dox cells xenografted in BALB/c nude mouse assessed as tumour growth at 25 mg/kg, ip administered daily; assay type: functional, organism-based
[22] = target: T1, ATP-dependent translocase ABCB1; assay: Reversal of P-gp mediated drug efflux in human HepG2/Dox cells assessed as increase in intracellular doxorubicin accumulation at 5 to 10 uM preincubated for 4 hrs followed by doxorubicin addition measured after 1 hr incubation by flow cytometry analysis; assay type: cell-based
[23] = target: T1, ATP-dependent translocase ABCB1; assay: Reversal of P-gp mediated drug efflux in human HepG2/Dox cells assessed as increase in intracellular doxorubicin accumulation at 10 uM preincubated for 4 hrs followed by doxorubicin addition measured after 1 hr incubation by fluorescence microscopic analysis; assay type: cell-based
[24] = target: T1, ATP-dependent translocase ABCB1; assay: Reversal of P-gp mediated multidrug resistance in human HepG2/DOX cells assessed as potentiation of taxol-induced cytotoxicity at 5 to 10 uM by MTT assay; assay type: cell-based; conditions: TDE = time-dependent effect
[25] = Toxicity in lung of BALB/c nude mouse xenografted with human HepG2/Dox cells at 25 mg/kg, ip administered daily by hematoxylin and eosin staining based assay; assay type: organism-based; conditions: in vivo
[26] = target: T1, ATP-dependent translocase ABCB1; assay: Reversal of P-gp mediated drug efflux in human MCF7/ADM cells assessed as increase in intracellular Rhodamine123 accumulation at 10 uM preincubated for 4 hrs followed by Rh123 addition measured after 1 hr incubation by fluorescence microscopic analysis; assay type: cell-based
[27] = Toxicity in liver of BALB/c nude mouse xenografted with human HepG2/Dox cells at 25 mg/kg, ip administered daily by hematoxylin and eosin staining based assay; assay type: organism-based; conditions: in vivo
[28] = target: T1, ATP-dependent translocase ABCB1; assay: Reversal of P-gp mediated multidrug resistance in human HepG2/DOX cells assessed as fold reduction in doxorubicin IC50 at 10 uM measured within 48 hrs by MTT assay relative to control; assay type: cell-based
[29] = Toxicity in kidney of BALB/c nude mouse xenografted with human HepG2/Dox cells at 25 mg/kg, iv cotreated with doxorubicin every 3rd for 12 days by hematoxylin and eosin staining based assay; assay type: organism-based; conditions: in vivo, 288 h
[30] = target: T1, ATP-dependent translocase ABCB1; assay: Inhibition of P-gp mediated doxorubicin efflux in human HepG2/Dox cells at 5 to 10 uM preincubated for 4 hrs followed by co-incubation with doxorubicin for 2 hrs followed by doxorubicin wash-out and measured after 120 mins incubation with drug containing culture medium by fluorescence based analysis; assay type: cell-based
[31] = organism: Homo sapiens; assay: Effect on P-gp expression in human MCF7/ADM cells at 5 to 10 uM measured after 48 hrs by Western blot analysis; assay type: functional, cell-based
[32] = test system: Homo sapiens; assay: In vivo reversal of P-gp mediated drug resistance in human HepG2/Dox cells xenografted in BALB/c nude mouse assessed as reduction in tumour growth at 25 mg/kg, iv co-administered with doxorubicin every 3rd day for 12 days; assay type: functional, organism-based
[33] = test system: MCF7; assay: Cytotoxicity against human MCF7 cells assessed as cell viability at 5 to 50 uM measured after 48 hrs by MTT assay; assay type: cell-based; conditions: mcf7, 48 h
[34] = target: T1, ATP-dependent translocase ABCB1; assay: Reversal of P-gp mediated drug efflux in human MCF7/ADM cells assessed as increase in intracellular doxorubicin accumulation at 10 uM preincubated for 4 hrs followed by doxorubicin addition measured after 1 hr incubation by fluorescence microscopic analysis; assay type: cell-based
[35] = Toxicity in BALB/c nude mouse xenografted with human HepG2/Dox cells assessed as effect on body weight at 25 mg/kg, ip administered daily; assay type: organism-based; conditions: in vivo
[36] = target: T1, ATP-dependent translocase ABCB1; assay: Reversal of P-gp mediated multidrug resistance in human MCF7/ADM cells assessed as fold reduction in doxorubicin IC50 at 5 uM measured within 48 hrs by MTT assay relative to control; assay type: cell-based
[37] = target: T1, ATP-dependent translocase ABCB1; assay: Stimulation of P-gp ATPase activity (unknown origin) at 5 to 10 uM incubated for 40 mins by P-gp-Glo luminescence assay
[38] = target: T1, ATP-dependent translocase ABCB1; assay: Reversal of P-gp mediated multidrug resistance in human MCF7/ADM cells assessed as fold reduction in doxorubicin IC50 at 10 uM measured within 48 hrs by MTT assay relative to control; assay type: cell-based
[39] = Cardiotoxicity in BALB/c nude mouse xenografted with human HepG2/Dox cells assessed as effect on doxorubicin-induced myocardial cell enlargement at 25 mg/kg, iv cotreated with doxorubicin every 3rd day for 12 days by hematoxylin and eosin staining based assay; assay type: toxicity, organism-based; conditions: in vivo, 288 h
[40] = target: T1, ATP-dependent translocase ABCB1; assay: Reversal of P-gp mediated multidrug resistance in human MCF7/ADM cells assessed as potentiation of doxorubicin-induced cytotoxicity at 5 to 10 uM by MTT assay; assay type: cell-based; conditions: TDE = time-dependent effect
[41] = target: T1, ATP-dependent translocase ABCB1; assay: Reversal of P-gp mediated drug efflux in human HepG2/Dox cells assessed as increase in intracellular Rhodamine123 accumulation at 10 uM preincubated for 4 hrs followed by Rh123 addition measured after 1 hr incubation by fluorescence microscopic analysis; assay type: cell-based
[42] = Toxicity in liver of BALB/c nude mouse xenografted with human HepG2/Dox cells at 25 mg/kg, iv cotreated with doxorubicin every 3rd day for 12 days by hematoxylin and eosin staining based assay; assay type: organism-based; conditions: in vivo, 288 h

T1 sequence (P08183 whole entry): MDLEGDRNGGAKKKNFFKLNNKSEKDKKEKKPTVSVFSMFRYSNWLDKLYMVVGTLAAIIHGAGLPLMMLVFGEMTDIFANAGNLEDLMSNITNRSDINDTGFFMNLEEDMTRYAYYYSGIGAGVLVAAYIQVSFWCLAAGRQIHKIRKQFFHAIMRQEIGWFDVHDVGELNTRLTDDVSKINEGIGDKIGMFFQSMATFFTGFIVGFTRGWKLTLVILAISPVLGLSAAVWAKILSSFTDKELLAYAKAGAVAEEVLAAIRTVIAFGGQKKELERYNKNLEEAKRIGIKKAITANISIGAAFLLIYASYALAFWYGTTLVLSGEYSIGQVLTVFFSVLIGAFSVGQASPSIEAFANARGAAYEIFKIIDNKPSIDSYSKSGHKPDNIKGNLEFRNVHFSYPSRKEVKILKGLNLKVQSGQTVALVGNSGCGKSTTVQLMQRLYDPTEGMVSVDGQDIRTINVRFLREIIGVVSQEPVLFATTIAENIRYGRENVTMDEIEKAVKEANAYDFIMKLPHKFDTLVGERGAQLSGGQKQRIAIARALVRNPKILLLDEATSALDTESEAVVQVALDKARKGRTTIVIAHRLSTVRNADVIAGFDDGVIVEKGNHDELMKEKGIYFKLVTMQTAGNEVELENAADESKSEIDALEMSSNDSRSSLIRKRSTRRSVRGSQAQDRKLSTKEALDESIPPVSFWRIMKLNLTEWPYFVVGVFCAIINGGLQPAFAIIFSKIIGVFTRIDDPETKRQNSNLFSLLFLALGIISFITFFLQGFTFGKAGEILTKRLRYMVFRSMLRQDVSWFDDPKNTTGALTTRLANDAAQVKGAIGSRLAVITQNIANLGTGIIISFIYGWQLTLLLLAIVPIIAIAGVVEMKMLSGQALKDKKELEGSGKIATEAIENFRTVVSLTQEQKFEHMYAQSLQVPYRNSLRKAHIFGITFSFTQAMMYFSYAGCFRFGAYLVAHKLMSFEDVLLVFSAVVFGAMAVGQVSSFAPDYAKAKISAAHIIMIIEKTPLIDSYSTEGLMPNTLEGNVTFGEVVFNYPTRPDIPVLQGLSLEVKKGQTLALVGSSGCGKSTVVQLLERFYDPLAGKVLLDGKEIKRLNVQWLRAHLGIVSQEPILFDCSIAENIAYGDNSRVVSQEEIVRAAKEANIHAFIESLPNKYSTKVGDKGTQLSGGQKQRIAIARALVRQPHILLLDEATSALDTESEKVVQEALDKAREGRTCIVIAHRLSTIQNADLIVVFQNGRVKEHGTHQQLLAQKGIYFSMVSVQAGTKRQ

Question: Which results are given for `CCCN(C(=O)CCCCCCC(=O)N(CCC)[C@H]1CC2=CC(=O)O[C@@]23C[C@@H]1N1CCCC[C@@H]13)[C@H]1CC2=CC(=O)O[C@@]23C[C@@H]1N1CCCC[C@@H]13`?
Answer: inhibition (INH) [1]: Not Active; inhibition at 10 µM [2]: 81%

Question: With `CCCN(C(=O)CCCCCCCC(=O)N(CCC)[C@H]1CC2=CC(=O)O[C@]23C[C@H]1N1CCCC[C@H]13)[C@H]1CC2=CC(=O)O[C@]23C[C@H]1N1CCCC[C@H]13` as the compound, how does the “inhibition (INH)” value [1] read?
Answer: Its value is “Active”.

Question: What about the Activity [3] of the same compound?
Answer: Its Activity is “Toxic”.

Question: What about the “inhibition (INH)” value [4] of the same compound?
Answer: The value was “Active”.

Question: And the Activity [5]?
Answer: Its Activity is “Toxic”.

Question: With `CCCN(C(=O)CCCCCC(=O)N(CCC)[C@H]1CC2=CC(=O)O[C@]23C[C@H]1N1CCCC[C@H]13)[C@H]1CC2=CC(=O)O[C@]23C[C@H]1N1CCCC[C@H]13` as the compound, how does the Activity [3] read?
Answer: The Activity was “Toxic”.

Question: And the Activity [5]?
Answer: The Activity was “Toxic”.

Question: What does the source list for `CCCN(C(=O)CCCCCCCCC(=O)N(CCC)[C@H]1CC2=CC(=O)O[C@]23C[C@H]1N1CCCC[C@H]13)[C@H]1CC2=CC(=O)O[C@]23C[C@H]1N1CCCC[C@H]13`?
Answer: inhibition (INH) [1]: Active; Activity [3]: Toxic; inhibition (INH) [4]: Active; Activity [5]: Toxic

Question: What does the source list for `CCCN(C(=O)CCCCCCC(=O)N(CCC)[C@H]1CC2=CC(=O)O[C@]23C[C@H]1N1CCCC[C@H]13)[C@H]1CC2=CC(=O)O[C@]23C[C@H]1N1CCCC[C@H]13`?
Answer: viability at 72 h, 50 µM [6]: 100%; Activity [7]: inactive; Activity [8]: Non-Toxic; inhibition (INH) [9]: Active; inhibition (INH) [10]: Active; Activity [11]: Toxic; Activity [12]: Toxic; Activity [13]: Non-Toxic; Activity [14]: Non-Toxic; inhibition at 10 µM [15]: 78%; Activity [16]: Non-Toxic; viability at 48 h, 10 µM [17]: > 90%; Activity [18]: Non-Toxic; viability at 48 h, 10 µM [19]: > 90%; inhibition (INH) [20]: Tde; inhibition [21]: inactive; inhibition (INH) [22]: Active; inhibition (INH) [23]: Active; inhibition (INH) [24]: Tde; Activity [25]: Non-Toxic; inhibition (INH) [26]: Active; Activity [27]: Non-Toxic; fold change (FC) [28]: 231; Activity [29]: Non-Toxic; inhibition (INH) [30]: Active; Activity [31]: inactive; inhibition [32]: Active; Activity [33]: Non-Toxic; inhibition (INH) [34]: Active; inhibition at 10 µM [2]: 85%; Activity [35]: Non-Toxic; fold change (FC) [36]: 10.4; Activity [37]: Active; fold change (FC) [38]: 126.4; Activity [39]: Non-Toxic; inhibition (INH) [40]: Tde; inhibition (INH) [41]: Active; Activity [42]: Non-Toxic
